Four molecules from publication PMC9959130, “Effects of Side Chain and Peptide Bond Modifications on the Targeting Properties of Stabilized Minigastrin Analogs” (Pharmaceuticals, 2023) can be followed below.

As a reminder, the fraction unbound is the share of the substance not bound to proteins or other matrix. The fraction remaining is the share of the starting amount still present when the sample was taken. Lower therefore signals a greater loss.

Data set [1] in a line: Binding to serum proteins (incubation in human serum, Sephadex G-50 size exclusion chromatography). Format: in vitro ADME. The following applies: radiolabeled peptide (111In where no radiometal named), 37 °C, 24 h after incubation, Sephadex G-50, γ-counter, n = 2. How it is done: Protein binding was determined by incubation of the radiolabeled peptides in human serum at 37 °C (500 pmol/mL, n = 2). For the time points of 1, 4, and 24 h after incubation, samples of 25 µL were subjected to Sephadex G-50 size exclusion chromatography (GE Healthcare Illustra, Little Chalfont, UK). The column and the eluate were measured using the γ-counter and the percentage of protein binding was calculated.
Background: Size exclusion chromatography separates by hydrodynamic size, large species first.

Data set [2] can be described thus: Distribution coefficient (LogD) in octanol/PBS. It counts as physicochemical. Particulars: radiolabeled peptide (111In-labeled where the label names no radiometal), shake-flask octanol/PBS, 100 pmol/mL, 15 min shaking at 1500 rpm, γ-counter, mean ± SD, n = 8. How it is done:
The distribution coefficient (LogD) in octanol/PBS was determined by mixing 0.5 mL of the radiolabeled DOTA peptides diluted in PBS (100 pmol/mL) and 0.5 mL octanol in a 1.5 mL microcentrifuge tube (n = 8). After shaking for 15 min (MS3 Basic, IKA, Staufen, Germany) at 1500 rpm and a waiting time of 10 min to ensure appropriate separation of the two phases, 100 µL aliquots of each phase were pipetted into 4.5 mL tubes. The tubes were measured using a γ-counter (2480 Wizard2 3″, PerkinElmer Life Sciences and Analytical Instruments, formerly Wallac Oy, Turku, Finland) and the LogD value was determined using following equation: LogD=Log(cpmoctanol phase/cpmPBS phase)

A short description of data set [3]: In vitro stability in human serum (intact radiopeptide by radio-HPLC). Format: in vitro ADME. The following applies: radiolabeled peptide (111In where no radiometal named), fresh human serum, 37 °C, 24 h after incubation, n = 2. How it is done:
In vitro stability studies were performed in human serum (n = 2). The radiolabeled peptides (1000 pmol/mL) were incubated at 37 °C and a sample of 100 μL was taken at 1, 4, and 24 h after incubation. After the precipitation of proteins with ACN at 1:1.5 (v/v), centrifugation (14,000 rpm, 2 min, centrifuge 5424, Eppendorf AG, Germany) and dilution with water at 1:1 (v/v), an aliquot of 100 μL of this solution was analyzed by HPLC. Radioligand breakdown was monitored and the percentage of intact radiopeptide was calculated using Chromeleon Dionex Software (Version 7.2.9.11323). Additionally, the radiolabeled peptides (1000 pmol/mL) were incubated in PBS (n = 1) at room temperature to confirm the complex stability as a control.

Data set [4] in a line: Biodistribution in BALB/c nude mice bearing A431-CCK2R/A431-mock xenografts. It counts as in vivo. Particulars: female, athymic BALB/c nude, mouse, iv, 20 pmol, total radioactivity, ~20 pmol, 4 h p.i. (indium-111 or lutetium-177), mean ± SD n = 4; for tissue to tissue ratio at 4 h: BALB/c nude mice; for tissue uptake at 4 h: xenografted BALB/c nude mice, i.v. How it is done:
The overall biodistribution and tumor targeting properties of selected radiolabeled peptides were evaluated in female athymic BALB/c nude mice (Charles River, Sulzfeld, Germany, age of 7 to 9 weeks). After tumor induction with 2 × 10^6 A431-CCK2R or A431-mock cells (subcutaneously injected in 200 μL DMEM into the right and left flank) and a waiting period of 10–14 days (sufficient to achieve tumors of ∼0.25 g), mice were randomly divided into groups of four and treated with a bolus injection of 150 µL of the injectable solution containing the radiolabeled peptide via a lateral tail vein to achieve an injected radioactivity of 150–200 kBq and a total injected peptide amount of ~20 pmol (n = 4 for each radiopeptide). For DOTA-[(N-Me)1Nal^8]MGS5, additional biodistribution studies were performed with gallium-68 (~0.5 MBq, 20 pmol) and lutetium-177 (~0.5 MBq, 20 pmol). The animals were euthanatized by cervical dislocation at 1 h (gallium-68) or 4 h p.i. (indium-111/ lutetium-177). The tumors and other tissues (blood, lung, heart, muscle, spleen, intestine, liver, kidney, stomach, and pancreas) were dissected, weighed, and the radioactivity measured in the γ-counter. The rest of the body and a standard of the solution injected was also measured together with the collected samples. The percentage of injected activity per gram of tissue (% IA/g) and the tumor-to-organ activity ratio of selected tissues were calculated for each mouse and time point studied. Origin software (Microcal Origin 6.1, Northampton, MA, USA) was used for statistical analysis (independent t-test for two populations; significance level p < 0.05).

[5] abbreviates: A431-CCK2R xenograft / blood, A431-CCK2R xenograft, read-out: tumor-to-organ ratio: blood.
Where [6] appears, read: A431-CCK2R xenograft / stomach, A431-CCK2R xenograft, read-out: tumor-to-organ ratio: stomach.
Setting [7] is: A431-CCK2R xenograft, read-out: Uptake in A431-CCK2R xenograft.
The mark [8] stands for this setting: A431-mock xenograft, read-out: Uptake in A431-mock xenograft.
[9] abbreviates: blood, read-out: Uptake in blood.
Where [10] appears, read: heart, read-out: Uptake in heart.
[11] abbreviates: intestine, read-out: Uptake in intestine.
[12] abbreviates: kidneys, read-out: Uptake in kidneys.
[13] abbreviates: liver, read-out: Uptake in liver.
Setting [14] is: muscle, read-out: Uptake in muscle.
Setting [15] is: pancreas, read-out: Uptake in pancreas.
The mark [16] stands for this setting: spleen, read-out: Uptake in spleen.
Where [17] appears, read: stomach, read-out: Uptake in stomach.
Where [18] appears, read: A431-CCK2R xenograft / kidney, A431-CCK2R xenograft, read-out: tumor-to-organ ratio: kidney.

Like-named read-outs stand apart in the source and are kept apart here. Where a SMILES comes first, the peptide text is derived from it. [ ]: non-standard residue; d: D form. The star is where a group is joined. DOTA = O=C(O)CN1CCN(CC(=O)O)CCN(CC(=O)*)CCN(CC(=O)O)CC1; 1Nal = N[C@@H](Cc1cccc2ccccc12)C(=O)O; NMeNle = CCCC[C@H](NC)C(=O)O

With `CCCC[C@@H](C(=O)N[C@@H](CC(=O)O)C(=O)N[C@@H](Cc1cccc2ccccc12)C(=O)NC)N(C)C(=O)[C@H](Cc1c[nH]c2ccccc12)NC(=O)CNC(=O)[C@H](Cc1ccc(O)cc1)NC(=O)[C@H](C)NC(=O)[C@@H](CCC(=O)O)NC(=O)CN1CCN(CC(=O)O)CCN(CC(=O)O)CCN(CC(=O)O)CC1` [DOTA-MGS5[NHCH3]], the “Binding to Serum Proteins (%)” value in data set [1] (500 pmol/mL) was 40.9 ± 3.1%. The same molecule yielded a LogD in data set [2] of −2.3 ± 0.2. Besides, the “Intact Radiopeptide in Human Serum (%)” value in data set [3] (1000 pmol/mL) amounted to 98.1 ± 0.4%.
Turning to `CCCC[C@@H](C(=O)N[C@@H](CC(=O)O)C(=O)N[C@@H](Cc1cccc2ccccc12)C(=O)NC)N(C)C(=O)[C@H](Cc1c[nH]c2ccccc12)NC(=O)CNC(=O)[C@H](Cc1ccc(O)cc1)NC(=O)[C@H](C)NC(=O)[C@@H](CCC(=O)O)NC(=O)CN1CCN(CC(=O)O)CCN(CC(=O)O)CCN(CC(=O)O)CC1` [[^111In]In-DOTA-MGS5[NHCH3], metal not drawn], the values for the tissue to tissue ratio at 4 h in data set [4] (setting [5]) and in data set [4] (setting [6]) were 69.9 ± 38.3 and 4.33 ± 0.56, respectively. Also, the tissue uptake at 4 h stood at 4.16 ± 1.01 %ID/g in data set [4] (setting [7]); 0.19 ± 0.08 %ID/g in data set [4] (setting [8]); 0.08 ± 0.07 %ID/g in data set [4] (setting [9]); 0.06 ± 0.02 %ID/g in data set [4] (setting [10]); 0.59 ± 0.46 %ID/g in data set [4] (setting [11]); 4.42 ± 1.15 %ID/g in data set [4] (setting [12]). Moreover, the tissue uptake at 4 h in data set [4] (setting [13]) came out at 0.36 ± 0.11 %ID/g; in data set [4] (lung, read-out: Uptake in lung), 0.07 ± 0.01 %ID/g; in data set [4] (setting [14]) it was 0.04 ± 0.02 %ID/g; in data set [4] (setting [15]) it was 0.4 ± 0.04 %ID/g; in data set [4] (setting [16]), 0.13 ± 0.02 %ID/g; in data set [4] (setting [17]), 0.96 ± 0.17 %ID/g. Further, the unbound share (fraction unbound) at 24 h, 500 pmol/mL in data set [1] was 0.591. Moreover, the LogD in data set [2] (read-out: LogD) is -2.33 ± 0.23.
Consider `CCCC[C@@H](C(=O)N[C@@H](CC(=O)O)C(=O)N[C@@H](Cc1ccc2ccccc2c1)C(N)=O)N(C)C(=O)[C@H](Cc1c[nH]c2ccccc12)NC(=O)CNC(=O)[C@H](Cc1ccc(O)cc1)NC(=O)[C@H](C)NC(=O)[C@@H](CCC(=O)O)NC(=O)CN1CCN(CC(=O)O)CCN(CC(=O)O)CCN(CC(=O)O)CC1` [[^111In]In-DOTA-[2Nal^8]MGS5, metal not drawn], for which the tissue to tissue ratio at 4 h in data set [4] (setting [5]) came out at 399 ± 89.6; in data set [4] (setting [18]), 6.04 ± 0.87; in data set [4] (setting [6]), 3.66 ± 0.64. For the same molecule, the tissue uptake at 4 h in data set [4] (setting [7]) stood at 25.4 ± 4.45 %ID/g; in data set [4] (setting [8]), 0.17 ± 0.04 %ID/g; in data set [4] (setting [9]) it was 0.06 ± 0.003 %ID/g; in data set [4] (setting [10]) it was 0.08 ± 0.01 %ID/g; in data set [4] (setting [11]), 0.95 ± 0.26 %ID/g; in data set [4] (setting [12]) it was 4.21 ± 0.29 %ID/g. For the same molecule, the tissue uptake at 4 h worked out at 0.66 ± 0.07 %ID/g in data set [4] (setting [13]); 0.13 ± 0.03 %ID/g in data set [4] (lung, read-out: Uptake in lung); 0.04 ± 0.01 %ID/g in data set [4] (setting [14]); 1.84 ± 0.52 %ID/g in data set [4] (setting [15]); 0.18 ± 0.05 %ID/g in data set [4] (setting [16]); 7.03 ± 1.1 %ID/g in data set [4] (setting [17]). Further, the LogD in data set [2] (read-out: LogD) was -1.71 ± 0.19. In data set [3], the fraction remaining at 24 h, 1000 pmol/mL is more than 90%.
Consider `CCCC[C@@H](C(=O)N[C@@H](CC(=O)O)C(=O)N[C@@H](Cc1cccc2ccccc12)C(N)=O)N(C)C(=O)[C@H](Cc1c[nH]c2ccccc12)NC(=O)CNC(=O)[C@H](Cc1ccc(O)cc1)NC(=O)[C@H](C)NC(=O)[C@@H](CCCCN)NC(=O)CN1CCN(CC(=O)O)CCN(CC(=O)O)CCN(CC(=O)O)CC1` [[^111In]In-DOTA-[DLys^1]MGS5, metal not drawn] ({DOTA}-[dK]AYGW[NMeNle]D[1Nal]-NH2), for which the tissue to tissue ratio at 4 h was 176 ± 31.9 in data set [4] (setting [5]), less than 2 in data set [4] (setting [18]) and 4.69 ± 1.19 in data set [4] (setting [6]). The tissue uptake at 4 h in data set [4] (setting [7]) is 33.9 ± 9.53 %ID/g; in data set [4] (setting [8]) it was 0.56 ± 0.27 %ID/g; in data set [4] (setting [9]), 0.2 ± 0.09 %ID/g; in data set [4] (setting [10]), 0.22 ± 0.06 %ID/g; in data set [4] (setting [11]) it was 1.96 ± 0.87 %ID/g; in data set [4] (setting [12]) it was approximately 20 %ID/g. The tissue uptake at 4 h stood at 1.94 ± 0.52 %ID/g in data set [4] (setting [13]); 0.3 ± 0.11 %ID/g in data set [4] (lung, read-out: Uptake in lung); 0.13 ± 0.05 %ID/g in data set [4] (setting [14]); 2.27 ± 1.2 %ID/g in data set [4] (setting [15]); 0.54 ± 0.12 %ID/g in data set [4] (setting [16]); 7.73 ± 3.49 %ID/g in data set [4] (setting [17]). For the same molecule, the LogD in data set [2] (read-out: LogD) was -1.31 ± 0.11.
